From patent US8765730B2 (Hoffmann-La Roche Inc, priority 2010, dated 2014)

Target: T1, human GPBAR1 receptor (Homo sapiens, UniProt Q8TDU6)
T1 construct: expressed in transfected cells
T1 sequence (Q8TDU6 1-330): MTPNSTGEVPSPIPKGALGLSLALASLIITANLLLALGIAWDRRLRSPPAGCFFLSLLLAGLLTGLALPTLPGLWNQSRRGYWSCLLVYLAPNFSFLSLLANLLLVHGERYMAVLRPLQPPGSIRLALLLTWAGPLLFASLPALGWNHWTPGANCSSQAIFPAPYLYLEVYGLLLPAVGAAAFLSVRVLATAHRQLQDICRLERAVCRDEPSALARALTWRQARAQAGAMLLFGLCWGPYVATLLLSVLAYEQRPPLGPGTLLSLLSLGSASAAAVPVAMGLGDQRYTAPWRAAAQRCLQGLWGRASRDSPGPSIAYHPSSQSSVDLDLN
Test: functional cAMP assay in CHO-dhfr(minus) cells expressing human GPBAR1 receptors
Type: cell-based
Settings: functional cAMP assay, 30 min at 30° C., read-out: human EC50
Summary of the method: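 Agonist cAMP read-out: stable GPBAR1 CHO-dhfr− clone, 30 min compound exposure at 30° C following 30 min IBMX (1 mM) preincubation in Krebs Ringer bicarbonate. Time-resolved energy-transfer detection gives EC50; parental CHO cells serve as counter-screen.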

SMILES | EC50
O/N=C(\CC(O)(c1ccccc1)c1ccccc1)c1ccncc1 [Example 154, (E)-3-Hydroxy-3,3-diphenyl-1-pyridin-4-yl-propan-1-one oxime] | 0.549 µM
O/N=C(/CC(O)(c1ccccc1)c1ccccc1)c1ccncc1 [Example 155, (Z)-3-Hydroxy-3,3-diphenyl-1-pyridin-4-yl-propan-1-one oxime] | 8.62 µM

Same assay, conditions: human EC50, functional cAMP assay, 30 min at 30° C.

SMILES | EC50
Cc1cc(/C(CC(c2ccc(Br)cc2)c2ccccc2C(F)(F)F)=N/O)ccn1 (stereo not shown) [Example 132, (E)-3-(4-Bromo-phenyl)-1-(2-methyl-pyridin-4-yl)-3-(2-trifluoromethyl-phenyl)-propan-1-one oxime] | 0.046 µM
Cc1cc(/C(CC(c2ccc(-c3ccc(S(C)(=O)=O)cc3)cc2)c2ccccc2C(F)(F)F)=N/O)ccn1 (stereo not shown) [Example 133, (E)-3-(4′-Methanesulfonyl-biphenyl-4-yl)-1-(2-methyl-pyridin-4-yl)-3-(2-trifluoromethyl-phenyl)-propan-1-one oxime] | 0.114 µM
Cc1cc(/C(CC(c2ccc(-c3ccc(C(=O)O)cc3)cc2)c2ccccc2C(F)(F)F)=N/O)ccn1 (stereo not shown) [Example 134, 4′-[3-[(E)-Hydroxyimino]-3-(2-methyl-pyridin-4-yl)-1-(2-trifluoromethyl-phenyl)-propyl]-biphenyl-4-carboxylic acid] | 0.02 µM
Cc1cc(/C(CC(c2ccc(-c3ccc(C(=O)O)c(F)c3)cc2)c2ccccc2C(F)(F)F)=N/O)ccn1 (stereo not shown) [Example 135, 3-Fluoro-4′-[3-[(E)-hydroxyimino]-3-(2-methyl-pyridin-4-yl)-1-(2-trifluoromethyl-phenyl)-propyl]-biphenyl-4-carboxylic acid] | 0.029 µM
Cc1ccccc1C(C/C(=N\O)c1ccncc1)c1ccc(N2CCN(S(C)(=O)=O)CC2)cc1 (stereo not shown) [Example 136, (E)-3-[4-(4-Methanesulfonyl-piperazin-1-yl)-phenyl]-1-pyridin-4-yl-3-o-tolyl-propan-1-one oxime] | 0.024 µM
Cc1cc(/C(CC(c2ccc(N3CCN(S(C)(=O)=O)CC3)cc2)c2ccccc2C(F)(F)F)=N/O)ccn1 (stereo not shown) [Example 137, (E)-3-[4-(4-Methanesulfonyl-piperazin-1-yl)-phenyl]-1-(2-methyl-pyridin-4-yl)-3-(2-trifluoromethyl-phenyl)-propan-1-one oxime] | 0.038 µM
Cc1cc(/C(CC(c2ccc(Br)cc2)c2ccc(Cl)cc2C)=N/O)ccn1 (stereo not shown) [Example 138, (E)-3-(4-Bromophenyl)-3-(4-chloro-2-methylphenyl)-1-(2-methylpyridin-4-yl)propan-1-one oxime] | 0.155 µM
Cc1cc(/C(CC(c2ccc(-c3ccc(C(=O)O)cc3)cc2)c2ccc(Cl)cc2C)=N/O)ccn1 (stereo not shown) [Example 139, (E)-4′-(1-(4-chloro-2-methylphenyl)-3-(hydroxyimino)-3-(2-methylpyridin-4-yl)propyl)biphenyl-4-carboxylic acid] | 0.017 µM
Cc1cc(/C(CC(c2ccc(Br)cc2)c2ccc(F)cc2C)=N/O)ccn1 (stereo not shown) [Example 140, (E)-3-(4-Bromophenyl)-3-(4-fluoro-2-methylphenyl)-1-(2-methylpyridin-4-yl)propan-1-one oxime] | 0.012 µM
Cc1cc(/C(CC(c2ccc(-c3ccc(C(=O)O)cc3)cc2)c2ccc(F)cc2C)=N/O)ccn1 (stereo not shown) [Example 141, (E)-4′-(1-(4-Fluoro-2-methylphenyl)-3-(hydroxyimino)-3-(2-methylpyridin-4-yl)propyl)biphenyl-4-carboxylic acid] | 0.008 µM
Cc1cc(/C(C[C@H](c2ccc(-c3cncnc3)cc2)c2ccccc2C)=N/O)ccn1 [Example 143, (E,R)-1-(2-Methyl-pyridin-4-yl)-3-(4-pyrimidin-5-yl-phenyl)-3-o-tolyl-propan-1-one oxime] | 0.001 µM
Cc1cc(/C(C[C@H](c2ccc(N3CCN(S(C)(=O)=O)CC3)cc2)c2ccccc2C)=N/O)ccn1 [Example 144, (E,R)-1-(2-Methylpyridin-4-yl)-3-(4-(4-(methylsulfonyl)piperazin-1-yl)phenyl)-3-o-tolylpropan-1-one oxime] | 0.017 µM
Cc1cc(/C(C[C@H](c2ccc(N3CCC(O)CC3)cc2)c2ccccc2C)=N/O)ccn1 [Example 145, (E,R)-3-(4-(4-Hydroxypiperidin-1-yl)phenyl)-1-(2-methylpyridin-4-yl)-3-o-tolylpropan-1-one oxime] | 0.001 µM
Cc1ccccc1[C@H](C/C(=N\O)c1cc(Cl)nc(Cl)c1)c1ccc(-c2ccc(C(=O)O)cc2)cc1 [Example 146, (E,R)-4′-(3-(2,6-Dichloropyridin-4-yl)-3-(hydroxyimino)-1-o-tolylpropyl)biphenyl-4-carboxylic acid] | 0.164 µM
Cc1cc(/C(CC(c2ccc(Br)cc2)c2ccc(Cl)cc2F)=N/O)ccn1 (stereo not shown) [Example 147, (E)-3-(4-Bromo-phenyl)-3-(4-chloro-2-fluoro-phenyl)-1-(2-methyl-pyridin-4-yl)-propan-1-one oxime] | 0.467 µM
Cc1ccccc1C(C/C(=N\O)c1cc(C)c(O)c(C)c1)c1ccc(Br)cc1 (stereo not shown) [Example 152, (E)-3-(4-Bromo-phenyl)-1-(4-hydroxy-3,5-dimethyl-phenyl)-3-o-tolyl-propan-1-one oxime] | 5.12 µM
CC(/C(=N\O)c1ccncc1)C(c1ccccc1)c1ccccc1 (stereo not shown) [Example 153, (E)-2-Methyl-3,3-diphenyl-1-pyridin-4-yl-propan-1-one oxime] | 0.151 µM
Cc1ccccc1C(C/C(=N\O)c1cnccn1)c1ccc(Br)cc1 (stereo not shown) [Example 156, (E)-3-(4-Bromo-phenyl)-1-pyrazin-2-yl-3-o-tolyl-propan-1-one oxime] | 6.14 µM

SMILES | EC50
Cc1ccccc1C(C/C(=N\O)c1ccnc2cc(Cl)ccc12)c1ccc(Br)cc1 (stereo not shown) [Example 157, (E)-3-(4-Bromo-phenyl)-1-(7-chloro-quinolin-4-yl)-3-o-tolyl-propan-1-one oxime] | 3.64 µM
COc1ccc(C2(C/C(=N\O)c3ccnc(C)c3)CCCCC2)cc1 [Example 158, (E)-2-[1-(4-Methoxy-phenyl)-cyclohexyl]-1-(2-methyl-pyridin-4-yl)-ethanone oxime] | 1.03 µM
COc1ccc(C2(C/C(=N/O)c3ccnc(C)c3)CCCCC2)cc1 [Example 159, (Z)-2-[1-(4-Methoxy-phenyl)-cyclohexyl]-1-(2-methyl-pyridin-4-yl)-ethanone oxime] | 5.56 µM
O=c1ccc(/C(CC(c2ccccc2)c2ccccc2)=N/O)c[nH]1 [Example 160, 5-{1-[(E)-Hydroxyimino]-3,3-diphenyl-propyl}-1H-pyridin-2-one] | 1.31 µM
Cn1cc(/C(CC(c2ccccc2)c2ccccc2)=N/O)ccc1=O [Example 161, 5-{1-[(E)-Hydroxyimino]-3,3-diphenyl-propyl}-1-methyl-1H-pyridin-2-one] | 0.119 µM
CCn1cc(/C(CC(c2ccc(Br)cc2)c2ccccc2C)=N/O)ccc1=O (stereo not shown) [Example 164, 5-{3-(4-Bromo-phenyl)-1-[(E)-hydroxyimino]-3-o-tolyl-propyl}-1-ethyl-1H-pyridin-2-one] | 0.004 µM
CCn1cc(/C(CC(c2ccc(Br)cc2)c2ccccc2C)=N\O)ccc1=O (stereo not shown) [Example 165, 5-{3-(4-Bromo-phenyl)-1-[(Z)-hydroxyimino]-3-o-tolyl-propyl}-1-ethyl-1H-pyridin-2-one] | 0.55 µM
CC(C)CC(C/C(=N\O)c1ccc(=O)n(C)c1)c1ccc(Br)cc1 (stereo not shown) [Example 170, 5-{3-(4-Bromo-phenyl)-1-[(E)-hydroxyimino]-5-methyl-hexyl}-1-methyl-1H-pyridin-2-one] | 0.453 µM
CC(C)CC(C/C(=N/O)c1ccc(=O)n(C)c1)c1ccc(Br)cc1 (stereo not shown) [Example 171, 5-{3-(4-Bromo-phenyl)-1-[(Z)-hydroxyimino]-5-methyl-hexyl}-1-methyl-1H-pyridin-2-one] | 4 µM
Cn1cc(/C(CC(c2ccc(Br)cc2)C2CCCC2)=N/O)ccc1=O (stereo not shown) [Example 172, 5-{3-(4-Bromo-phenyl)-3-cyclopentyl-1-[(E)-hydroxyimino]-propyl}-1-methyl-1H-pyridin-2-one] | 0.056 µM
Cn1cc(/C(CC(c2ccc(Br)cc2)C2CCCC2)=N\O)ccc1=O (stereo not shown) [Example 173, 5-{3-(4-Bromo-phenyl)-3-cyclopentyl-1-[(Z)-hydroxyimino]-propyl}-1-methyl-1H-pyridin-2-one] | 1.93 µM
CCCC(C/C(=N\O)c1ccc(=O)n(C)c1)c1ccc(Br)cc1 (stereo not shown) [Example 174, 5-{3-(4-Bromo-phenyl)-1-[(E)-hydroxyimino]-hexyl}-1-methyl-1H-pyridin-2-one] | 0.268 µM
Cn1cc(/C(CC(CCCC(F)(F)F)c2ccc(Br)cc2)=N/O)ccc1=O (stereo not shown) [Example 175, 5-{3-(4-Bromo-phenyl)-7,7,7-trifluoro-1-[(E)-hydroxyimino]-heptyl}-1-methyl-1H-pyridin-2-one] | 1.31 µM
C=CCC(C/C(=N\O)c1ccc(=O)n(C)c1)c1ccc(Br)cc1 (stereo not shown) [Example 176, 5-{3-(4-Bromo-phenyl)-1-[(E)-hydroxyimino]-hex-5-enyl}-1-methyl-1H-pyridin-2-one] | 0.369 µM
CCCCC(C/C(=N\O)c1ccc(=O)n(C)c1)c1ccc(Br)cc1 (stereo not shown) [Example 177, 5-{3-(4-Bromo-phenyl)-1-[(E)-hydroxyimino]-heptyl}-1-methyl-1H-pyridin-2-one] | 0.256 µM
Cn1cc(/C(CC(c2ccc(Br)cc2)C2CCCCC2)=N/O)ccc1=O (stereo not shown) [Example 178, 5-{3-(4-Bromo-phenyl)-3-cyclohexyl-1-[(E)-hydroxyimino]-propyl}-1-methyl-1H-pyridin-2-one] | 0.042 µM
Cn1cc(/C(CC(c2ccc(Br)cc2)C2CCC2)=N/O)ccc1=O (stereo not shown) [Example 179, 5-{3-(4-Bromo-phenyl)-3-cyclobutyl-1-[(E)-hydroxyimino]-propyl}-1-methyl-1H-pyridin-2-one] | 0.165 µM
